# Measurements published in patent publication US20040005601A1, “Methods for targeting quadruplex DNA” (priority 2002, published 2004).
# Experiments:
# RET = RET RNA expression in MiaPaCa cells (RT-PCR); format: cell-based, human; conditions: for downregulation of RET RNA expression: IC70 concentration
# Procedure: The effects of two test molecules also were assessed for the RET quadruplex. MiaPaCa-2 (human pancreatic tumor) were obtained from ATCC and were cultured at 37° C./5% CO2 in RPMI medium (Cellgro) with 10% fetal bovine serum (FBS), 50 U/ml penicillin G sodium, and 50 U/ml streptomycin sulfate (Gibco/BRL). Cells were treated with TMPyP4 and telomestatin (for the latter molecule, see, e.g., Shin-ya et al., J. Am. Chem. Soc. 123:1262 (2001)) when they reached ˜50% confluency. MiaPaCa cells were first washed with 5 ml of sterile phosphate-buffered saline (PBS, Fisher Scientific). The PBS was aspirated from the cells by vacuum, and replaced with 5 ml of Opti-MEM medium (Gibco-BRL) containing 6 μl Lipofectin (Invitrogen). Compounds then were added to the medium. Cells were allowed to grow at 37° C./5% CO2 for 6 hours to allow for transfection, and the medium was replaced with normal growth medium. […] The trypsin was neutralized with an equal volume of culture medium, the cells were then pelleted from this mixture by centrifugation at 500×gravity, the supernatant was aspirated, and the pellet was washed in PBS, recentrifuged, and frozen at −80° C.
# RET RNA then was extracted from the cells. Cell pellets were thawed and resuspended in 400 μl of a buffer from a commercially available kit (i.e., Buffer RA1 from the NucleoSpin RNA II Kit (Clontech)). Total cellular RNA extraction was performed according to the manufacturer's protocol. Reverse transcription was performed to convert mRNA (i.e., polyadenylated RNA) to cDNA, and RET-specific primers were used in PCR to amplify RET message.
# CMYC [1] = conditions: cited from earlier work
# RET quadruplex [2] = test: Photo-induced cleavage of the RET quadruplex; format: binding
# CMYC [3] = test: CMYC expression in MiaPaCa cells; format: cell-based, human; conditions: 100 μM
# PDGFA quadruplex = test: Stabilization of PDGFA quadruplex structure (polymerase arrest / chemical footprinting); format: biochemical
# Description: (§1) Nucleic acids in a chair conformation often have similar but not identical structures when compared to one another and differences can manifest in loop size and nucleotide sequence, quadruplex geometry, quadruplex stability, the number of alternative chair structures for a given nucleotide sequence, and chemical reactivity, and binding of other molecules. Polymerase arrest assays and chemical footprinting studies applied to the CMYC chair quadruplex structure as described hereafter also were applied to nucleotide sequences upstream of the PDGFA and RET genes. It was determined that the NHE regions 5′ of the RET and PDGFA genes formed chair quadruplex structures that regulated transcription. FIG. 6A depicts a generalized quadruplex chair structure formed in the CMYC, PDGFA, and RET regulatory regions. In this chair structure, CMYC and RET have two stable tetrads and PDGFA has three stable tetrads. The N1 loop for CMYC is TG, for RET is GCG, and for PDGFA is CG. The N2 loop for CMYC is GAG, for RET is GCG, and for PDGFA is GCG. The N3 loop for CMYC is TG, for RET is GCG, and for PDGFA is CG (form A) or AG (form B). The different forms of the PDGFA quadruplex are depicted in FIG. 6C and the RET quadruplex structure is depicted in FIG. 6B. […]
# Pu27 chair G-quadruplex = test: Porphyrin photocleavage of Pu27 chair quadruplex; format: binding; conditions: exposure to light
# Description: The two quadruplex conformations of Pu27 were contacted with compounds known to bind quadruplex structures. Specifically, the two conformations were contacted with TMPyP4 and TMPyP2 (FIG. 4A) to further confirm the biologically relevant quadruplex conformation (FIGS. 4B or 4C). It has been shown that both TMPyP4 and TMPyP2 catalyze the oxidation of DNA upon exposure to light, which results in DNA strand breakage in proximity to the binding sites (Han et al., J. Am. Chem. Soc. 123: 8902-8913 (2001)).
# An identical cleavage pattern was produced by both compounds for the basket quadruplex (FIG. 4B). DNA damage was centered on the constituent guanines of the six-base bridging loop, inferring that both porphyrins are able to bind to this region, but in a nonspecific way that is neither intercalating nor end-stacking (FIG. 4A).
# G-quadruplex structures = conditions: cited from earlier work
# RET quadruplex [4] = test: Stabilization of RET quadruplex structure (polymerase arrest / chemical footprinting); format: biochemical
# Description: as §1
# CMYC quadruplex = test: Stabilization of CMYC quadruplex structure (polymerase arrest / chemical footprinting); format: biochemical
# Description: as §1
# [5] = system: Pu27 chair quadruplex (CMYC NHE III1); test: Taq polymerase stop assay at 60° C. with Pu27 insert template; format: biochemical
# Procedure: The same wild-type and mutant sequences of the Pu27 were used in a Taq polymerase stop assay, which was described in Han et al., Nucl. Acids Res. 27: 537-542 (1999). This assay is a modification of that used by Weitzmann et al., J. Biol. Chem. 271, 20958-20964 (1996), and is also described below. A reaction mixture of template DNA (77-mer with a Pu27 or mutant Pu27 insert) (50 nM), Tris.HCl (50 mM), MgCl2 (10 mM), DTT (0.5 mM), EDTA (0.1 mM), BSA (60 ng), and 5′-end-labeled 18-mer primer (˜18 nM) was heated to 90° C. for 5 min and allowed to cool to ambient temperature over 30 min. Taq Polymerase (1 μl) was added to the reaction mixture, and the reaction was maintained at a constant temperature (45° C. for the mutant Pu27 comparison; 60° C. for the porphyrin comparison) for 30 min. (For the porphyrin comparison, following cooling to ambient temperature, the requisite amount of porphyrin solution was added to the reaction mixture and left at ambient temperature for 30 min prior to the addition of polymerase.) Following the addition of 10 μl stop buffer (formamide [20 ml], 1 M NaOH [200 μl], 0.5 M EDTA [400 μl], 10 mg bromophenol blue), the DNA fragments were separated with a sequencing gel (12%) and visualized on a phosphorimager. Adenine sequencing (indicated by “A” at the top of the gel) was performed using double-stranded DNA Cycle Sequencing System from Life Technologies. The general sequence for 77-mer template strands was TCCAACTATGTATAC-INSERT-[…], and the 1 8-mer primer had the sequence TAATACGACTCACTATAG.
# To further determine whether this selectivity of TMPyP4 versus TMPyP2 for the chair conformation correlated with an effect on CMYC transcription, a Taq polymerase stop assay was performed at an elevated temperature (60° C.) to partially destabilize the arresting quadruplex structure in the presence of increasing concentrations of TMPyP2 and TMPyP4. […] This is in agreement with the differential effects of the two compounds on CMYC expression in vitro and sensitivity in vivo to tumors that overexpress CMYC (MX-1 and PC-3).
# CMYC [6] = test: CMYC expression in Ramos Burkitt's lymphoma cell line (NHE III1 retained); format: cell-based
# Procedure: (§2) The importance of the NHE III1 sequence in mediating the CMYC transcriptional inhibition by TMPyP4 was assessed. Two Burkitt's lymphoma cell lines with different translocation break points within the CMYC and immunoglobulin loci were analyzed, which are referred to as the Ramos cell line and the CA46 cell line. While the Ramos cell line retained the NHE III1 during the translocation, the CA46 cell line lost this element, together with the P1 and P2 promoters (FIG. 5A). When the NHE III1 element was deleted, as in the CA46 cell line, TMPyP4 had no effect on CMYC transcriptional activation.
# CMYC [7] = test: CMYC transcription in CA46 Burkitt's lymphoma cell line (NHE III1 deleted); format: cell-based; conditions: NHE III1 element deleted
# Procedure: as §2
SMILES,downregulation of RET RNA expression (RET; after 48 hours),downregulation of RET RNA expression (RET; after 72 hours),effect on CMYC transcription and protein expression (CMYC [1]),binding site on RET quadruplex from photo-induced cleavage (RET quadruplex [2]),downregulation of CMYC (CMYC [3]),stabilization of PDGFA quadruplex structure (PDGFA quadruplex),photocleavage pattern of chair G-quadruplex (Pu27 chair G-quadruplex),binding to G-quadruplex structures (G-quadruplex structures),stabilization of RET quadruplex structure (RET quadruplex [4]),stabilization of CMYC quadruplex structure (CMYC quadruplex),"polymerase arrest at quadruplex arrest site ([5]; 0.5 μM compound, 60° C.) [%]","polymerase arrest at quadruplex arrest site ([5]; 5 μM compound, 60° C.)",conformation of Pu27 stabilized ([5]; chair versus basket),effect on CMYC expression (CMYC [6]),downregulation of RET (RET; 100 μM),effect on CMYC transcriptional activation (CMYC [7]),"stabilization of the quadruplex arrest site ([5]; up to 20 μM compound, 60° C.)"
Cc1oc2nc1-c1nc(co1)-c1nc(co1)-c1nc(co1)-c1nc(co1)-c1nc(co1)C1=NC(CS1)c1nc-2c(C)o1 (centres unmarked) [telomestatin],at least 50%,at least 50%,–,–,–,–,–,–,–,–,–,–,–,–,–,–,–
C[n+]1ccc(-c2c3nc(c(-c4cc[n+](C)cc4)c4ccc([nH]4)c(-c4cc[n+](C)cc4)c4ccc([nH]4)c(-c4cc[n+](C)cc4)c4nc2C=C4)C=C3)cc1 [TMPyP4],–,–,lowered,binds above and below the two stable tetrads,about 50%,stabilized,specific cleavage pattern,able to bind,not the RET quadruplex,stabilized,~65,virtually total arrest,stabilizes the chair conformation over the basket conformation,lowered CMYC expression,did not significantly downregulate,no effect,–
C[n+]1ccccc1-c1c2nc(c(-c3cccc[n+]3C)c3ccc([nH]3)c(-c3cccc[n+]3C)c3ccc([nH]3)c(-c3cccc[n+]3C)c3nc1C=C3)C=C2 [TMPyP2],–,–,not,–,–,–,–,bound with less affinity,–,–,–,–,–,not,–,–,only modestly stabilized
